In US11292758B2, “Compounds and methods for delivery of prostacyclin analogs” (United Therapeutics Corporation, priority 2003, dated 2022):
Like-named read-outs stand apart in the source and are kept apart here.

Columns and labels:
[1] = Bioavailability and pharmacokinetics of treprostinil in rats after intravenous, intraportal vein, intraduodenal, intracolonic and oral dosing (Example 1); settings: rats dosed via the portal vein, 1 mg/kg, before the thirty-minute sample
[2] = rat, in vivo
in vivo = settings: male, Sprague-Dawley, rat
[3] = First pass effect on circulating through the liver; format: in vivo
From the text: (§1) There are two major barriers to deliver treprostinil in the circulatory system. One of these barriers is that treprostinil undergoes a large first pass effect. […] The permeability of treprostinil has been measured across Caco-2 cell monolayers. […] It is believed that the p-glycoprotein efflux pump prevents certain pharmaceutical compounds from traversing the mucosal cells of the small intestine and, therefore, from being absorbed into systemic circulation.

Caco-2 cell monolayers = test: Permeability across Caco-2 cell monolayers; format: in vitro ADME
From the text: as §1

[4] = Skin contact irritation testing
From the text: In contrast, some of the compounds disclosed herein, generally as prodrugs of treprostinil, are not irritating to the skin. Accordingly, the present compounds are well suited for topical or transdermal administration.

[5] = male, Sprague-Dawley, iv, 1 mg/kg
[6] = 1 mg/kg, Average (n = 3) plasma concentrations
[7] = 1 mg/kg, Average plasma concentrations
[8] = iv, 1 mg/kg, Average (n = 3) plasma concentrations
[9] = po, 1 mg/kg, Average (n = 3) plasma concentrations

CCCCC[C@H](O)CC[C@@H]1[C@H]2Cc3cccc(OCC(=O)O)c3C[C@H]2C[C@H]1O [Treprostinil, treprostinil]
Mortality [1]: One rat (#123) expired | compound absorbed in the intestine ([2]; male, Sprague-Dawley): approximately 60% | Tmax ([2]; male, Sprague-Dawley, 1 mg/kg): 2 min | Average (n = 3) plasma concentrations ([2]; male, Sprague-Dawley, 1 mg/kg, 360 min): 0.06^λ ng/mL | Average (n = 3) plasma concentrations ([2]; male, Sprague-Dawley, 1 mg/kg, 480 min): 0.20^λ ng/mL | CLs [2, 5]: 88.54 mL/min/kg | Volume of Distribution [2, 5]: 1.98 L/kg | distribution and elimination of the compound that occurs by 60 minutes post-dosing ([2]; male, Sprague-Dawley, iv, 60 min): over 90% | Clinical observations ([2]; iv, 1 mg/kg): extreme lethargy | concentration at 360 min (in vivo; [6]): 0.89 ng/mL | concentration at 480 min (in vivo; [6]): 0.9 ng/mL | concentration at 2 min (in vivo; [7]): 302 ng/mL | concentration at 5 min (in vivo; [7]): 97.4 ng/mL | concentration at 15 min (in vivo; [7]): 48 ng/mL | concentration at 30 min (in vivo; [7]): 21.9 ng/mL | concentration at 60 min (in vivo; [7]): 11.1 ng/mL | concentration at 120 min (in vivo; [7]): 3.87 ng/mL | concentration at 240 min (in vivo; [7]): 2.51 ng/mL | concentration at 360 min (in vivo; [7]): 4.95 ng/mL | concentration at 480 min (in vivo; [7]): 5.14 ng/mL | Tmax (in vivo): ≤ 5 min | Vd (in vivo; iv, 1 mg/kg): 1.98 L/kg | clearance (in vivo; iv, 1 mg/kg): 88.5 mL/min/kg | concentration at 2 min (in vivo; [8]): 1050 ng/mL | concentration at 5 min (in vivo; [8]): 364 ng/mL | concentration at 15 min (in vivo; [8]): 131 ng/mL | concentration at 30 min (in vivo; [8]): 55.6 ng/mL | concentration at 60 min (in vivo; [8]): 14.4 ng/mL | concentration at 120 min (in vivo; [8]): 4.45 ng/mL | concentration at 240 min (in vivo; [8]): 1.09 ng/mL | concentration at 360 min (in vivo; [8]): 0.5 ng/mL | concentration at 480 min (in vivo; [8]): 0.3 ng/mL | AUC(0-t) (in vivo; iv, 1 mg/kg, Average AUC480 min): 188 ng·h/mL | Cmax (in vivo; iv, 1 mg/kg): 2120 ng/mL | AUC(0-t) (in vivo; iv, 1 mg/kg, Individual AUC480 min): 172 ng·h/mL | Tmax (in vivo; iv, 1 mg/kg): 0 min | half-life (in vivo; iv, 1 mg/kg, T½ (terminal plasma half-life)): 94 min | half-life (in vivo; iv, 1 mg/kg, half-life of the distribution phase): 10.3 min | concentration at 5 min (in vivo; [9]): 4.52 ng/mL | concentration at 15 min (in vivo; [9]): 2.9 ng/mL | concentration at 30 min (in vivo; [9]): 3.67 ng/mL | concentration at 60 min (in vivo; [9]): 2.06 ng/mL | concentration at 120 min (in vivo; [9]): 4.52 ng/mL | concentration at 240 min (in vivo; [9]): 1.82 ng/mL | concentration at 360 min (in vivo; [9]): 0.9 ng/mL | concentration at 480 min (in vivo; [9]): 0.96 ng/mL | AUC(0-t) (in vivo; po, 1 mg/kg, Average AUC480 min): 17.3 ng·h/mL | bioavailability (in vivo; po, 1 mg/kg, Average Bioavailability (%) ± SD): 9.2 ± 1.4% | Cmax (in vivo; po, 1 mg/kg): 5 ng/mL | AUC(0-t) (in vivo; po, 1 mg/kg, Individual AUC480 min): 16.6 ng·h/mL | bioavailability (in vivo; po, 1 mg/kg, Individual Bioavailability): 8.9% | Tmax (in vivo; po, 1 mg/kg): 5 min | absorbed dose left after first pass [3]: about 40% | treprostinil plasma levels metabolized upon first circulating through the liver [3]: about 60% | apical to basal transport rate (Caco-2 cell monolayers): 1.39e-06 cm/s | basal to apical transport rate (Caco-2 cell monolayers): 1.23e-05 cm/s | skin irritation upon skin contact [4]: can be irritating upon skin contact
